In patent publication US20260271931A1, “HERBICIDAL MIXTURES” (Bayer Aktiengesellschaft, priority 2023, published 2026):
Where two headings read alike, the source gives them in different places.

Legend:
Format in all cases: in vivo
[1] = test system: Pharbitis purpurea (PHBPU); assay: Post-emergence action against weeds, greenhouse pot test, visual rating: Pharbitis purpurea
Description: (§1) When the observed efficacies already exceed the formal sum total of the values of the tests with individual applications, they also exceed the expected value according to Colby, which is calculated using the formula below and is likewise regarded as an indication of synergism (cf. S. R. Colby; in Weeds 15 (1967) pp. 20 to 22):
(§2) where: • A=efficacy of the active ingredient (A) in % at an application rate of a [g a.i./ha]; • B=efficacy of the active ingredient (B) in % at an application rate of b [g a.i./ha]; • E^C=expected value of the effect of the combination (A)+(B) in % at the combined application rate a+b [g a.i./ha].
(§3) The observed values (E^A) from the experiments, given suitable low dosages, show an effect of the combinations exceeding the expected values according to Colby (E^C) (Δ).
(§4) Seeds of mono- and dicotyledonous weeds were placed in sandy loam in pots, covered with soil and grown in a greenhouse under good growth conditions (temperature, air humidity, water supply). Two to three weeks after sowing, the test plants were treated at the two- to four-leaf stage with the compositions of the invention. The compositions of the invention, formulated as spray powders or as emulsion concentrates, were sprayed onto the green parts of the plant in various dosages with an application rate equivalent to […] of water. After the test plants had been kept in the greenhouse under optimum growth conditions for 3 weeks, the activity of the preparations was rated visually in comparison to untreated controls.
(§5) 100% efficacy means complete control of the particular weed tested.
(§6) 0% efficacy means zero control of the particular weed tested.
(§7) Expected values according to Colby are reported under E.
(§8) The exceedance of the expected value E is given as Δ (=synergistic effect).
(§9) The rating period is reported in days after application (DAT).

Eleusine indica (ELEIN) = assay: Post-emergence action against weeds, greenhouse pot test, visual rating: Eleusine indica; conditions: Eleusine indica, post-emergence; for pest or weed control at 0.4 g/ha: 0.4 g a.i./ha; for pest or weed control at 3 g/ha: 3 g a.i./ha
Description: as §1, §2, §3, §4, §5, §6, §7, §8, §9

Bidens pilosa (BIDPI) = assay: Post-emergence action against weeds, greenhouse pot test, visual rating: Bidens pilosa
Avena fatua (AVEFA) = assay: Post-emergence action against weeds, greenhouse pot test, visual rating: Avena fatua
Centaurea cyanus (CENCY) [2] = assay: Post-emergence action against weeds, greenhouse pot test, visual rating: Centaurea cyanus; conditions: 240 h, read-out: Herbicidal effect [%] on CENCY 10 DAT
Centaurea cyanus (CENCY) [3] = assay: as above
Description: as §1, §2, §3, §4, §5, §6, §7, §8, §9

Kochia scoparia (KCHSC) = assay: Post-emergence action against weeds, greenhouse pot test, visual rating: Kochia scoparia
Lolium rigidum (LOLRI) = assay: Post-emergence action against weeds, greenhouse pot test, visual rating: Lolium rigidum
[4] = test system: Brachiaria platyfylla (BRAPP); assay: Post-emergence action against weeds, greenhouse pot test, visual rating: Brachiaria platyfylla; conditions: post-emergence; for pest or weed control at 0.4 g/ha: 0.4 g a.i./ha; for pest or weed control at 3 g/ha: 3 g a.i./ha
Description: as §1, §2, §3, §4, §5, §6, §7, §8, §9

[5] = test system: Echinochloa crus-galli (ECHCG); assay: Post-emergence action against weeds, greenhouse pot test, visual rating: Echinochloa crus-galli; conditions: 1 g a.i./ha
[6] = test system: Sorghum halepense (SORHA); assay: Post-emergence action against weeds, greenhouse pot test, visual rating: Sorghum halepense
Description: as §1, §2, §3, §4, §5, §6, §7, §8, §9

[7] = 504 h, read-out: Herbicidal effect [%] on ELEIN 21 DAT
[8] = 240 h, read-out: Herbicidal effect [%] on ELEIN 10 DAT
[9] = 240 h, read-out: Herbicidal effect [%] on BRAPP 10 DAT
[10] = 504 h, read-out: Herbicidal effect [%] on BRAPP 21 DAT

SMILES: N#Cc1cc(Br)c(O)c(Br)c1 [Bromoxynil, bromoxynil]
- Herbicidal effect [%] on PHBPU 10 DAT ([1]; 80 g a.i./ha): 50%
- pest or weed control at 80 g/ha (Eleusine indica (ELEIN); 240 h, 80 g a.i./ha, read-out: Herbicidal effect [%] on ELEIN 10 DAT): 0%
- Herbicidal effect [%] on BIDPI 10 DAT (Bidens pilosa (BIDPI); 80 g a.i./ha): 50%
- pest or weed control at 80 g/ha (Avena fatua (AVEFA); Avena fatua, 240 h, 10 DAT, 80 g a.i./ha, read-out: Herbicidal effect [%] on AVEFA 10 DAT): 0%
- pest or weed control at 80 g/ha (Centaurea cyanus (CENCY) [2]; 80 g a.i./ha): 30%

SMILES: CS(=O)(=O)NC(=O)c1cc(Oc2ccc(C(F)(F)F)cc2Cl)ccc1[N+](=O)[O-] [Fomesafen, fomesafen]
- Herbicidal effect [%] on CENCY 21 DAT (Centaurea cyanus (CENCY) [3]; 1.5 g a.i./ha): 30%
- pest or weed control at […] (Eleusine indica (ELEIN); 504 h, 1.5 g a.i./ha, read-out: Herbicidal effect [%] on ELEIN 21 DAT): 0%
- Herbicidal effect [%] on KCHSC 10 DAT (Kochia scoparia (KCHSC); 1.5 g a.i./ha): 10%
- pest or weed control at […] (Kochia scoparia (KCHSC); Bassia scoparia, post-emergence, 504 h, 1.5 g a.i./ha, read-out: Herbicidal effect [%] on KCHSC 21 DAT): 0%
- Herbicidal effect [%] on BIDPI 10 DAT (Bidens pilosa (BIDPI); 1.5 g a.i./ha): 30%
- Herbicidal effect [%] on BIDPI 21 DAT (Bidens pilosa (BIDPI); 1.5 g a.i./ha): 20%
- pest or weed control at […] (Centaurea cyanus (CENCY) [2]; 1.5 g a.i./ha): 20%
- pest or weed control at […] (Lolium rigidum (LOLRI); Lolium rigidum, 504 h, 1.5 g a.i./ha, 21 DAT, read-out: Herbicidal effect [%] on LOLRI 21 DAT): 0%
- pest or weed control at […] ([4]; 504 h, 1.5 g a.i./ha, read-out: Herbicidal effect [%] on BRAPP 21 DAT): 0%

SMILES: COc1cc(OC)nc(NC(=O)NS(=O)(=O)c2cc(NC=O)ccc2C(=O)N(C)C)n1 [Foramsulfuron, foramsulfuron]
- Herbicidal effect [%] on ECHCG 10 DAT [5]: 70%
- pest or weed control at 1 g/ha (Kochia scoparia (KCHSC); Bassia scoparia, post-emergence, 504 h, 1 g a.i./ha, read-out: Herbicidal effect [%] on KCHSC 21 DAT): 20%
- Herbicidal effect [%] on BIDPI 10 DAT (Bidens pilosa (BIDPI); 1 g a.i./ha): 20%
- Herbicidal effect [%] on BIDPI 21 DAT (Bidens pilosa (BIDPI); 1 g a.i./ha): 30%
- Herbicidal effect [%] on AVEFA 21 DAT (Avena fatua (AVEFA); 21 DAT, 1 g a.i./ha): 70%
- pest or weed control at 1 g/ha (Avena fatua (AVEFA); Avena fatua, 240 h, 10 DAT, 1 g a.i./ha, read-out: Herbicidal effect [%] on AVEFA 10 DAT): 60%
- pest or weed control at 1 g/ha (Centaurea cyanus (CENCY) [2]; 1 g a.i./ha): 30%
- Herbicidal effect [%] on SORHA 21 DAT ([6]; 1 g a.i./ha): 20%

SMILES: CSc1nnc(C(C)(C)C)c(=O)n1N [Metribuzin, metribuzin]
- Herbicidal effect [%] on PHBPU 10 DAT ([1]; 15 g a.i./ha): 0%
- pest or weed control at 15 g/ha (Eleusine indica (ELEIN); 504 h, 15 g a.i./ha, read-out: Herbicidal effect [%] on ELEIN 21 DAT): 10%
- pest or weed control at 15 g/ha (Centaurea cyanus (CENCY) [2]; 15 g a.i./ha): 0%
- pest or weed control at 15 g/ha (Lolium rigidum (LOLRI); Lolium rigidum, 504 h, 15 g a.i./ha, 21 DAT, read-out: Herbicidal effect [%] on LOLRI 21 DAT): 0%

SMILES: CCC(CC)Nc1c([N+](=O)[O-])cc(C)c(C)c1[N+](=O)[O-] [Pendimethalin, pendimethalin]
- pest or weed control at 100 g/ha (Eleusine indica (ELEIN); 504 h, 100 g a.i./ha, read-out: Herbicidal effect [%] on ELEIN 21 DAT): 0%
- pest or weed control at 100 g/ha (Kochia scoparia (KCHSC); Bassia scoparia, post-emergence, 504 h, 100 g a.i./ha, read-out: Herbicidal effect [%] on KCHSC 21 DAT): 10%
- pest or weed control at 100 g/ha (Centaurea cyanus (CENCY) [2]; 100 g a.i./ha): 0%

SMILES: CCOC(=O)COc1cc(-c2nn(C)c(OC(F)F)c2Cl)c(F)cc1Cl [Pyraflufen-ethyl, pyraflufen-ethyl]
- Herbicidal effect [%] on CENCY 21 DAT (Centaurea cyanus (CENCY) [3]; 7.5 g a.i./ha): 88%
- pest or weed control at […] (Eleusine indica (ELEIN); [7]): 0%
- Herbicidal effect [%] on BIDPI 10 DAT (Bidens pilosa (BIDPI); 7.5 g a.i./ha): 88%
- Herbicidal effect [%] on BIDPI 21 DAT (Bidens pilosa (BIDPI); 7.5 g a.i./ha): 80%
- pest or weed control at […] (Centaurea cyanus (CENCY) [2]): 88%
- Herbicidal effect [%] on SORHA 21 DAT ([6]; 7.5 g a.i./ha): 10%

SMILES: CC(C)N(C)S(=O)(=O)NC(=O)c1cc(-n2c(=O)cc(C(F)(F)F)n(C)c2=O)c(F)cc1Cl [Saflufenacil, saflufenacil]
- Herbicidal effect [%] on PHBPU 21 DAT ([1]; 0.4 g a.i./ha): 80%
- Herbicidal effect [%] on CENCY 21 DAT (Centaurea cyanus (CENCY) [3]; 0.4 g a.i./ha): 30%
- pest or weed control at 0.4 g/ha (Eleusine indica (ELEIN); [8]): 30%
- pest or weed control at 0.4 g/ha (Eleusine indica (ELEIN); [7]): 0%
- Herbicidal effect [%] on KCHSC 10 DAT (Kochia scoparia (KCHSC); 0.4 g a.i./ha): 10%
- pest or weed control at 0.4 g/ha (Kochia scoparia (KCHSC); Bassia scoparia, post-emergence, 504 h, 0.4 g a.i./ha, read-out: Herbicidal effect [%] on KCHSC 21 DAT): 10%
- pest or weed control at 0.4 g/ha (Avena fatua (AVEFA); Avena fatua, 240 h, 10 DAT, 0.4 g a.i./ha, read-out: Herbicidal effect [%] on AVEFA 10 DAT): 10%
- pest or weed control at 0.4 g/ha (Centaurea cyanus (CENCY) [2]; 0.4 g a.i./ha): 40%
- Herbicidal effect [%] on LOLRI 10 DAT (Lolium rigidum (LOLRI); 0.4 g a.i./ha, 10 DAT): 10%
- pest or weed control at 0.4 g/ha (Lolium rigidum (LOLRI); Lolium rigidum, 504 h, 0.4 g a.i./ha, 21 DAT, read-out: Herbicidal effect [%] on LOLRI 21 DAT): 0%
- pest or weed control at 0.4 g/ha [4, 9]: 10%
- pest or weed control at 0.4 g/ha [4, 10]: 0%

SMILES: CS(=O)(=O)c1ccc(C(=O)C2C(=O)CCCC2=O)c(Cl)c1COCC(F)(F)F [Tembotrione, tembotrione]
- Herbicidal effect [%] on PHBPU 21 DAT ([1]; 3 g a.i./ha): 30%
- Herbicidal effect [%] on CENCY 21 DAT (Centaurea cyanus (CENCY) [3]; 3 g a.i./ha): 30%
- pest or weed control at 3 g/ha (Eleusine indica (ELEIN); [8]): 60%
- pest or weed control at 3 g/ha (Eleusine indica (ELEIN); [7]): 40%
- Herbicidal effect [%] on KCHSC 10 DAT (Kochia scoparia (KCHSC); 3 g a.i./ha): 20%
- pest or weed control at 3 g/ha (Kochia scoparia (KCHSC); Bassia scoparia, post-emergence, 504 h, 3 g a.i./ha, read-out: Herbicidal effect [%] on KCHSC 21 DAT): 10%
- Herbicidal effect [%] on BIDPI 21 DAT (Bidens pilosa (BIDPI); 3 g a.i./ha): 30%
- pest or weed control at 3 g/ha (Centaurea cyanus (CENCY) [2]; 3 g a.i./ha): 40%
- Herbicidal effect [%] on SORHA 10 DAT ([6]; 3 g a.i./ha, 10 DAT): 80%
- Herbicidal effect [%] on SORHA 21 DAT ([6]; 3 g a.i./ha): 20%
- pest or weed control at 3 g/ha (Lolium rigidum (LOLRI); Lolium rigidum, 504 h, 3 g a.i./ha, 21 DAT, read-out: Herbicidal effect [%] on LOLRI 21 DAT): 20%
- pest or weed control at 3 g/ha [4, 9]: 40%
- pest or weed control at 3 g/ha [4, 10]: 20%
